Experimental data as given in PMC11699130, “Design and synthesis of antiproliferative 2-oxoindolin-3-ylidenes incorporating urea function with potential VEGFR-2 inhibitory properties” (Scientific Reports, 2025).

Key:
Format in all cases: cell-based
[1] = test system: HCT116 (colon) carcinoma cell line; assay: MTT antiproliferation assay, HCT116; details: for IC50: Homo sapiens, HCT-116, MTT, 72 h incubation, HCT116 (colon), read-out: IC50, μM ± SD, HCT116; for SI (safety/selectivity index), HCT116: in brackets after IC50, normal RPE1 relative to HCT116
Description: (§1) Antiproliferation properties against normal RPE1 (human immortalized retinal pigment epithelial) cell line were also considered for safety/selectivity index (SI) determination of each respective agent synthesized (Table 1, Supplementary Figs. S61–S64). […]
(§2) All the biological studies conducted obey the standards and approved by the Research Ethics Committee, National Research Centre, Egypt (associated with project ID:
(§3) Antiproliferation properties
(§4) The synthesized compounds 12a‒j were screened for their antiproliferation properties against HCT116 (colon), MCF7 (breast) and PaCa2 (pancreatic) cancer cell lines by the standard mitochondrial dependent reduction of yellow MTT [3 -(4,5-dimethylthiazol-2- […]
(§5) considered as standard reference/drug. Cells were suspended in DMEM medium for MCF7, PaCa-2 and McCoy’s 5A for HCT116 in addition to 1% antibiotic–antimycotic mixture (10000 μg ml-1 potassium penicillin, 10000 μg ml-1 streptomycin sulfate and 25 μg ml-1 amphotericin B), 10% fetal bovine serum and 1% L-glutamine at 37 °C, under 5% CO2 and 95% humidity. Cells were seeded at concentration of 30000 cells per well in fresh complete growth medium in 96-well tissue culture microtiter plates for 24 h. Media […]
(§6) was aspirated, fresh complete medium was added and cells were incubated with different concentrations of the tested compound to give a final concentration of [50, 25, 12.5 and 6.25 μM “in addition to 3.125, 1.56 and 0.78 μM in case of high potent a nalogs”). 0.5% DMSO was used as a negative control. Triplicate wells were prepared for each individual dose. After 72 h of incubation, medium was aspirated, 40 μl MTT salt (2.5 mg ml -1) was added to each well and incubated for further 4 h at 37 °C. To stop the reaction and dissolve the formed crystals, 150 μl of 10% sodium dodecyl sulfate (SDS) in deionized water was added to each well and incubated overnight at 37 °C. The absorbance was then measured at 570 nm and a reference wavelength of 595 nm.
(§7) Data were collected as mean values for experiments performed in triplicates for each individual dose which had been measured by MTT assay. Control experiments did […]
(§8) The cell surviving fraction was calculated according to the following equation.
(§9) Surviving fraction = Opticaldensity(O.D.)oftreatedcells
(§10) The agents synthesized were also tested against RPE1 (normal human immortalized retinal pigment epithelial cell line) cell (in DMEM -F12 medium) to determine the toxicity/selectivity towards normal cells relative to the cancer cell lines […]
(§11) The IC50 (concentration required to produce 50% inhibition of cell growth compared to the control experiment) was determined using Graph-Pad PRISM version-5 software. Statistical calculations for determination of the mean and standard division (SD) values were determined by SPSS 16 so ftware. The observed anti-proliferative properties are presented in Table 1 ( Supplementary Figs. S61‒S64). […]

[2] = test system: MCF7 (breast) carcinoma cell line; assay: MTT antiproliferation assay, MCF7; details: for IC50: Homo sapiens, MTT, 72 h incubation, MCF7 (breast), read-out: IC50, μM ± SD, MCF7; for SI (safety/selectivity index), MCF7: in brackets after IC50, normal RPE1 relative to MCF7
Description: as §1, §2, §3, §4, §5, §6, §7, §8, §9, §10, §11

[3] = test system: PaCa2 (pancreatic) carcinoma cell line; assay: MTT antiproliferation assay, PaCa2; details: for IC50: PaCa-2, MTT, 72 h incubation, PaCa2 (pancreatic), read-out: IC50, μM ± SD, PaCa2; for SI (safety/selectivity index), PaCa2: in brackets after IC50, normal RPE1 relative to PaCa2
Description: as §1, §2, §3, §4, §5, §6, §7, §8, §9, §10, §11

[4] = test system: RPE1 (human immortalized retinal pigment epithelial) cell line; assay: MTT assay on normal cells for safety/selectivity; details: RPE-1, read-out: IC50, μM ± SD, RPE1
Procedure: as §1, §6, §7, §8, §9, §10, §11

[5] = biological target: T1, VEGFR-2 (Homo sapiens, UniProt P35968); assay: VEGFR-2 inhibitory properties by western blotting; details: for Relative quantification (RQ): VEGFR-2 western blot band, normalised to beta actin, at 10 μM, control RQ 3.290; for inhibition at 10 µM: western blotting, read-out: % Inhibition against VEGFR-2
T1 construct: lysed cells; endogenous in cells
T1 sequence (P35968 20-1356): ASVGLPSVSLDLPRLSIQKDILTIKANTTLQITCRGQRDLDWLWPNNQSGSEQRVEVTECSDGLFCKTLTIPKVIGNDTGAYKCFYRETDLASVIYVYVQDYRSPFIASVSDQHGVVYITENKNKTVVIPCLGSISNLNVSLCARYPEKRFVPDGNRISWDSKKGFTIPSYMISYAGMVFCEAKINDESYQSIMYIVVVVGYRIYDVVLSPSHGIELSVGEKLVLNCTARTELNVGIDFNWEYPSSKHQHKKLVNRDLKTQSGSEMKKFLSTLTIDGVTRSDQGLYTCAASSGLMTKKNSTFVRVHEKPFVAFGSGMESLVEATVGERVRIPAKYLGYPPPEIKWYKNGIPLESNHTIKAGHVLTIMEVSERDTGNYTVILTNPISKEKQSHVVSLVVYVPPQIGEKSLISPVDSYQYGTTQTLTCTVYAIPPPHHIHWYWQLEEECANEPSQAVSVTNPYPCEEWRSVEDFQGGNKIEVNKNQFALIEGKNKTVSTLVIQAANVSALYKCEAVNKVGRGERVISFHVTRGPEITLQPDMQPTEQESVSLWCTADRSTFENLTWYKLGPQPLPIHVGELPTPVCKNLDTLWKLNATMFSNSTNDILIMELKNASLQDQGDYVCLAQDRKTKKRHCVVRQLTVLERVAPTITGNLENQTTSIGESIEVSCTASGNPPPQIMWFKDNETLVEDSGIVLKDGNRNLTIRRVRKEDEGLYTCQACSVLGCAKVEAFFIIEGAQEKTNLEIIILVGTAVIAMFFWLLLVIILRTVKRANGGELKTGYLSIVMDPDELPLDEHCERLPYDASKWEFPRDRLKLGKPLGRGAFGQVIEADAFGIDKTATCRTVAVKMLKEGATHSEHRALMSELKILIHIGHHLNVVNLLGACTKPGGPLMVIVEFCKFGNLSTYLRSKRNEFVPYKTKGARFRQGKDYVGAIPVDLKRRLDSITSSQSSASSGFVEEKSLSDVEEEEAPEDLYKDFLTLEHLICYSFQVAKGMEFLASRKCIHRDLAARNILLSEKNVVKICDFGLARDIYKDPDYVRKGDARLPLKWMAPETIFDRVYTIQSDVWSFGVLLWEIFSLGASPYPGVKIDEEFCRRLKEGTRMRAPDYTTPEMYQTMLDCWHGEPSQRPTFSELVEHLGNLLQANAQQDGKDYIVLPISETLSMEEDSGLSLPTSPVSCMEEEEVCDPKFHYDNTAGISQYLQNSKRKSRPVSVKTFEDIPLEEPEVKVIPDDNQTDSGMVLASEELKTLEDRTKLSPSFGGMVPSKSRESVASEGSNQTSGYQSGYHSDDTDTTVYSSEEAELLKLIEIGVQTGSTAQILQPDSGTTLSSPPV
Procedure: VEGFR-2 inhibitory properties […]
standard/drug) was determined at 10 μM by the western blotting technique obeying the manufacturer’s instruction (Santa Cruz Biotechnology, Inc .).5
Protein extraction procedure
The ReadyPrepTM protein extraction kit (total protein) provided by Bio-Rad Inc.
(Catalog #163-2086) employed by the manufacturer, was added to each sample of the lysed cells. Bradford Protein Assay Kit (SK3041) for quantitative protein analysis was provided by Bio-basic Inc. (Markham Ontario L3R 8T4 Canada). A Bradford assay was performed according to manufacturer’s instructions to determine protein concentration in each sample. 20 μg protein concentration of each sample was then loaded with an equal volume of 2x Laemmli sample buffer containing 4% SDS, 10% 2-mercaptoehtanol, 20% glycerol, 0.004% bromophenol blue and 0.125 M Tris HCl. The pH was checked and brought to 6.8. Each previous mixture was boiled at 95°C for 5 min to ensure denaturation of protein before loading on polyacrylamide gel electrophoresis.
Protein separation by electrophoresis
Samples were separated on a polyacrylamide gel; the procedure was abbreviated as SDS-PAGE form Sodium Dodecyl Sulfate PolyAcrylamide Gel Electrophoresis, which is a standard technique for separating proteins according to their molecular weight.
Polyacrylamide gels were performed using TGX Stain-Free™ FastCast™ Acrylamide Kit (SDS-PAGE), which was provided by Bio-Rad Laboratories inc Cat # 161-0181. The SDS-PAGE TGX Stain-Free FastCast was prepared according to manufacturer’s […]
Protein blotting (transfer of proteins from the gel to the membrane)
The gel was assembled in transfer sandwich from below to above (filter paper, PVDF membrane, gel and filter paper). The sandwich was placed in the transfer tank with 1x transfer buffer, which is composed of 25 mM Tris and 190 mM glycine and 20% methanol. Then, the blot was run for 7 min . at 25 V to allow protein bands transfer from gel to membrane using BioRad Trans-Blot Turbo.
The membrane was blocked in tris -buffered saline with Tween 20 (TBST) buffer and 3% bovine serum albumin (BSA) at room temperature for 1 hr. The components of blocking […]
buffer were as follow; 20 mM Tris pH 7.5, 150 mM NaCl, 0.1% Tween 20 and 3% bovine serum albumin (BSA).
Incubation with the primary antibody
Primary antibody of VEGFR2 was purchased. Primary antibody was diluted in TBST according to manufactured instructions.

| Compound | IC50 [1] [µM] | SI (safety/selectivity index), HCT116 [1] | IC50 [2] [µM] | SI (safety/selectivity index), MCF7 [2] | IC50 [3] [µM] | SI (safety/selectivity index), PaCa2 [3] | IC50 [4] [µM] | Relative quantification (RQ) [5] | inhibition at 10 µM [5] [%] | fold more potent than sunitinib ([3]; PaCa2, ratio of IC50 values) |
| --- | --- | --- | --- | --- | --- | --- | --- | --- | --- | --- |
| O=C(Nc1ccccc1)Nc1ccc(C(=O)/C=C2/C(=O)Nc3ccccc32)cc1 [Compound 12b, (E)-1-{4-[2-(2-Oxoindolin-3-ylidene)acetyl]phenyl}-3-phenylurea] | 6.54 ± 0.452 | 1.277 | 2.08 ± 0.126 | 4.014 | 4.09 ± 0.172 | 2.043 | 8.36 ± 0.374 | 0.422 | 87.2 |  |
| O=C(Nc1ccccc1)Nc1cccc(C(=O)/C=C2/C(=O)Nc3ccc(Cl)cc32)c1 [Compound 12e, (E)-1-{3-[2-(5-Chloro-2-oxoindolin-3-ylidene)acetyl]phenyl}-3-phenylurea] | 11.9 ± 2.53 | 1.229 | 3.91 ± 0.78 | 3.738 | 7 ± 1.11 | 2.087 | 14.6 ± 0.316 | 0.538 | 83.6 |  |
| O=C(Nc1ccccc1)Nc1ccc(C(=O)/C=C2/C(=O)Nc3ccc(F)cc32)cc1 [Compound 12d, (E)-1-{4-[2-(5-Fluoro-2-oxoindolin-3-ylidene)acetyl]phenyl}-3-phenylurea] | 5.78 ± 0.593 | 1.898 | 2.9 ± 0.3 | 3.779 | 4.96 ± 0.201 | 2.214 | 11 ± 0.429 | 0.491 | 85.1 |  |
| COc1ccc2c(c1)/C(=C\C(=O)c1cccc(NC(=O)Nc3ccccc3)c1)C(=O)N2 [Compound 12i, (E)-1-{3-[2-(5-Methoxy-2-oxoindolin-3-ylidene)acetyl]phenyl}-3-phenylurea] | 27.2 ± 2.95 | 1.111 | 8.96 ± 0.767 | 3.370 | 7.64 ± 0.08 | 3.952 | 30.2 ± 0.948 | 0.634 | 80.7 |  |
| O=C(Nc1ccccc1)Nc1ccc(C(=O)/C=C2/C(=O)Nc3ccc(Cl)cc32)cc1 [Compound 12f, (E)-1-{4-[2-(5-Chloro-2-oxoindolin-3-ylidene)acetyl]phenyl}-3-phenylurea] | 6.58 ± 0.923 | 1.630 | 3.41 ± 0.761 | 3.144 | 5.81 ± 0.63 | 1.845 | 10.7 ± 0.766 | 0.517 | 84.3 |  |
| O=C(Nc1ccccc1)Nc1cccc(C(=O)/C=C2/C(=O)Nc3ccccc32)c1 [Compound 12a, (E)-1-{3-[2-(2-Oxoindolin-3-ylidene)acetyl]phenyl}-3-phenylurea] | 13.3 ± 1.35 | 1.022 | 3.13 ± 0.395 | 4.355 | 5.24 ± 0.502 | 2.606 | 13.6 ± 0.659 | 0.746 | 77.3 |  |
| CCN(CC)CCNC(=O)c1c(C)[nH]c(/C=C2\C(=O)Nc3ccc(F)cc32)c1C [Sunitinib, reference compound] | 9.57 ± 0.949 |  | 11.8 ± 0.937 |  | 13.34 ± 0.091 |  |  |  |  |  |
| O=C(Nc1ccccc1)Nc1ccc(C(=O)/C=C2/C(=O)Nc3ccc(Br)cc32)cc1 [Compound 12g, (E)-1-{4-[2-(5-Bromo-2-oxoindolin-3-ylidene)acetyl]phenyl}-3-phenylurea] | 6.29 ± 0.912 | 2.173 | 4.41 ± 0.544 | 3.101 | 5.32 ± 0.228 | 2.572 | 13.7 ± 0.85 | 0.500 | 84.8 |  |
| Cc1ccc2c(c1)/C(=C\C(=O)c1ccc(NC(=O)Nc3ccccc3)cc1)C(=O)N2 [Compound 12h, (E)-1-{4-[2-(5-Methyl-2-oxoindolin-3-ylidene)acetyl]phenyl}-3-phenylurea] | 5.58 ± 0.636 | 1.523 | 2.07 ± 0.081 | 4.107 | 4 ± 0.369 | 2.128 | 8.5 ± 0.466 | 0.475 | 85.6 | about 3.34 fold |
| COc1ccc2c(c1)/C(=C\C(=O)c1ccc(NC(=O)Nc3ccccc3)cc1)C(=O)N2 [Compound 12j, (E)-1-{4-[2-(5-Methoxy-2-oxoindolin-3-ylidene)acetyl]phenyl}-3-phenylurea] | 6.15 ± 0.539 | 1.400 | 1.69 ± 0.067 | 5.090 | 4.49 ± 0.785 | 1.917 | 8.6 ± 0.334 | 0.678 | 79.4 |  |
| O=C(Nc1ccccc1)Nc1cccc(C(=O)/C=C2/C(=O)Nc3ccc(F)cc32)c1 [Compound 12c, (E)-1-{3-[2-(5-Fluoro-2-oxoindolin-3-ylidene)acetyl]phenyl}-3-phenylurea] | 14.4 ± 1.47 | 1.483 | 5.81 ± 0.629 | 3.669 | 6.8 ± 0.514 | 3.133 | 21.31 ± 0.026 | 0.472 | 85.6 |  |
